Like-named read-outs stand apart in the source and are kept apart here. One block for each compound: values may come before it.
Columns and labels:
c-Myc [1] = assay: Western blot analysis of cellular c-Myc levels in MM.1S cells; type: cell-based, human; settings: 6 h; for IC50: Homo sapiens, MM1.S, read-out: IC50 for c-Myc suppression; for c-Myc levels (western blot): MM.1S cells, inhibitor 5 μM
[2] = biological target: first bromodomain of BRD4, BRD4(1) (Homo sapiens, UniProt O60885); assay: AlphaScreen assay; type: binding; settings: described in words
BRD4(1) = BRD4(1) (Homo sapiens, UniProt O60885); assay: Isothermal titration calorimetry; type: binding; settings: ITC, 15 °C, 50 mM HEPES, 150 mM NaCl
RSK family kinase = assay: Kinome-wide profiling, RSK family; settings: read-out: Kds, RSK family; kinome-wide data
PLK family = assay: Kinome-wide profiling, PLK family
MV4-11 AML cells = assay: MV4-11 proliferation assay; type: cell-based, human; settings: read-out: IC50, proliferation of MV4-11 AML cells
c-Myc [3] = assay: Western blot of c-Myc levels in Molm14 cell lines; type: cell-based, human; settings: FLT3 inhibitor-sensitive and -resistant lines, 6 h
[4] = test system: MM.1S multiple myeloma cells; assay: MM.1S proliferation assay; type: cell-based; settings: Homo sapiens, MM1.S, 72 h, read-out: IC50, MM.1S proliferation
[5] = test system: 12 primary human cell-based BioMAP systems; assay: BioMAP primary human cell disease model assay systems

SMILES: C[C@@H](Oc1cc(-n2cnc3ccc(CN4CCN(C)CC4)cc32)sc1C(N)=O)c1ccccc1C(F)(F)F [GSK-461364A]
c-Myc levels (western blot) (c-Myc [1]): did not affect c-Myc levels

SMILES: COc1cc2c(cc1-c1c(C)noc1C)ncc1[nH]c(=O)n([C@H](C)c3ccccn3)c12 [I-BET]
IC50 (MV4-11 AML cells; 72 h): 200 nM

SMILES: Cc1sc2c(c1C)C(c1ccc(Cl)cc1)=N[C@@H](CC(=O)OC(C)(C)C)c1nnc(C)n1-2 [JQ1]
IC50 (MV4-11 AML cells; 72 h): 28 nM
c-Myc expression in Molm14 cell lines (c-Myc [3]): inhibits c-Myc expression with similar potencies

SMILES: C[C@@H]1CCN(C(=O)CC#N)C[C@@H]1N(C)c1ncnc2[nH]ccc12 [tofacitinib]
c-Myc levels (western blot) (c-Myc [1]): did not affect c-Myc levels

Further lines, with some results ahead:

IC50 (c-Myc [1]): ~100 nM
SMILES: CC[C@@H]1C(=O)N(C)c2cnc(Nc3ccc(C(=O)NC4CCN(C)CC4)cc3OC)nc2N1C1CCCC1 [BI-2536]
c-Myc levels (western blot) (c-Myc [1]): strong c-Myc down regulation

AlphaScreen dose response IC50 [2]: nanomolar
Kd (BRD4(1)): 3500 ± 170 nM
Kd (RSK family kinase): 10 to 100 nM
Kd (PLK family; read-out: Kds, PLK family, kinome-wide data): ~10 nM
SMILES: CC(C)CCN1c2nc(Nc3cc(F)c(O)c(F)c3)ncc2N(C)C(=O)C1C (stereo not shown) [BI-D1870]
PLK family potencies lower than for BI-2536 (PLK family): 10–100 fold

Kd (BRD4(1); error of the fit): 445 ± 42 nM
SMILES: CN(c1ccccc1CNc1nc(Nc2ccc3c(c2)CC(=O)N3)ncc1C(F)(F)F)S(C)(=O)=O [PF-431396]

IC50 (c-Myc [1]): 1000 to 3000 nM
IC50 [4]: 1000 to 3000 nM
SMILES: Cc1cnc(Nc2ccc(OCCN3CCCC3)cc2)nc1Nc1cccc(S(=O)(=O)NC(C)(C)C)c1 [TG-101348]
c-Myc levels (western blot) (c-Myc [1]): strong c-Myc down regulation
production of TNFα, MIG and IL-8 [5]: inhibited

IC50 (MV4-11 AML cells; Homo sapiens, MV4-11, 72 h): ~10000 nM
SMILES: N#CC[C@H](C1CCCC1)n1cc(-c2ncnc3[nH]ccc23)cn1 [ruxolitinib]
c-Myc levels (western blot) (c-Myc [1]): did not affect c-Myc levels
